Assays:
[1] = target: T1, hPPARδ (Homo sapiens, UniProt Q03181); assay: PPAR transient transactivation assay, hPPARδ; format: cell-based
T1 construct: is generated by PCR (PPARδ: aa 128-C-terminus); expressed in transfected cells; host or cells: HEK293
T1 sequence (Q03181 128-441 limits assumed): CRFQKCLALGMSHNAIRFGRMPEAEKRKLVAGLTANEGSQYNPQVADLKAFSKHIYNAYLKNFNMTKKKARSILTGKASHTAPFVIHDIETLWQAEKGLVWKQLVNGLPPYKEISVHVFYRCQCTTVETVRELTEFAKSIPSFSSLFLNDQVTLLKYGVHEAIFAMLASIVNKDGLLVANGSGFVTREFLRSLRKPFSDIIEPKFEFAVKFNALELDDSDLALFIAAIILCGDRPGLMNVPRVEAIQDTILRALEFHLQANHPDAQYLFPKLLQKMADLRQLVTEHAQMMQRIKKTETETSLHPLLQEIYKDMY
Procedure: (§1) “Activation” herein is defined as the abovementioned downstream response, which in the case of PPAR's is gene transcription. Gene transcription, in some cases, is measured indirectly as downstream production of proteins reflective of the activation of the particular PPAR subtype under study. Alternatively, an artificial reporter construct, in some cases, is employed to study the activation of the individual PPAR's expressed in cells. The ligand binding domain of the particular receptor to be studied, in some embodiments, is fused to the DNA binding domain of a transcription factor, which produces convenient laboratory readouts, such as the yeast GAL4 transcription factor DNA binding domain. The fusion protein, in some cases, is transfected into a laboratory cell line along with a Gal4 enhancer, which effects the expression of the luciferase protein. When such a system is transfected into a laboratory cell line, binding of a receptor agonist to the fusion protein will result in light emission.
The PPAR transient transactivation assay, in some cases, is based on transient transfection into human HEK293 cells of two plasmids encoding a chimeric test protein and a reporter protein respectively. The chimeric test protein, in some cases, is a fusion of the DNA binding domain (DBD) from the yeast GAL4 transcription factor to the ligand binding domain (LBD) of the human PPAR proteins. The PPAR-LBD moiety harbored in addition to the ligand binding pocket also has the native activation domain, allowing the fusion protein to function as a PPAR ligand dependent transcription factor. The GAL4 DBD will direct the chimeric protein to bind only to Gal4 enhancers (of which none existed in HEK293 cells). The reporter plasmid contained a Gal4 enhancer driving the expression of the firefly luciferase protein. After transfection, HEK293 cells expressed the GAL4-DBD-PPAR-LBD fusion protein. […] The amount of luciferase protein is measured by light emission after addition of the appropriate substrate. […]

[2] = target: T2, hPPARα (Homo sapiens, UniProt Q07869); assay: PPAR transient transactivation assay, hPPARα; format: cell-based
T2 construct: expressed in transfected cells; host or cells: HEK293
T2 sequence (Q07869 239-466 limits assumed): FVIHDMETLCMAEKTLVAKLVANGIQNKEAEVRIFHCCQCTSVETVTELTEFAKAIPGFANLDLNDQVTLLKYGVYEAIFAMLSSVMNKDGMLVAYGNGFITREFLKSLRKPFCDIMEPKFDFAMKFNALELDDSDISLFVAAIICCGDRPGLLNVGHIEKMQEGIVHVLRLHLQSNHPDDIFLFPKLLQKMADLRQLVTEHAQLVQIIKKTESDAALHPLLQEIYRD
Procedure: as §1
The PPAR transient transactivation assay, in some cases, is based on transient transfection into human HEK293 cells of two plasmids encoding a chimeric test protein and a reporter protein respectively. […] The amount of luciferase protein is measured by light emission after addition of the appropriate substrate. […]

[3] = target: T3, LXRα (Homo sapiens, UniProt Q13133); assay: activity on nuclear receptor LXRα; format: cell-based
T3 sequence (Q13133 1-447): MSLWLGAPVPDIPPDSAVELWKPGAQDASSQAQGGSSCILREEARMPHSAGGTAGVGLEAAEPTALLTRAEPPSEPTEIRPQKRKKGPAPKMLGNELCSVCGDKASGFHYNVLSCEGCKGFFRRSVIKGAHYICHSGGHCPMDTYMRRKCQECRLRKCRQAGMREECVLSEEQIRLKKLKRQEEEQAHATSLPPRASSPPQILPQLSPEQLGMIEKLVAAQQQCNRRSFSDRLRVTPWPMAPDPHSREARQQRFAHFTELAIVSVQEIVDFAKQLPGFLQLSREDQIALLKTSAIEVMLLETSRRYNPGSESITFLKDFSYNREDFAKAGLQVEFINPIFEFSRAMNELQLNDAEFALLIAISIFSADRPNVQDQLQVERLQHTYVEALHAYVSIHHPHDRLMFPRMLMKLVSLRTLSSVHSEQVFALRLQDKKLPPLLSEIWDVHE

[4] = tested on: rat muscle cell lines; assay: fatty acid oxidation in rat muscle cell lines; format: cell-based
[5] = tested on: PPARδ regulated genes (CPT1b, PGC1α); assay: expression of PPARδ regulated genes in vivo

Question: With `Cc1cc(OC/C=C(/c2ccc(F)cc2)c2ccc(C#CCN3CCOCC3)cc2)ccc1OCC(=O)O` [Compound 1, (E)-[4-[3-(4-Fluorophenyl)-3-[4-[3-(morpholin-4-yl)propynyl]phenyl]allyloxy]-2-methyl-phenoxy]acetic acid] as the compound, how does the “type of agonism on PPARδ” value [1] read?
Answer: full agonist

Question: What about the “selectivity for PPARδ over PPARα” value ([1]; PPARδ over PPARα, human PPAR subtypes in vitro) of the same compound?
Answer: at least 100 fold

Question: What about the “selectivity for PPARδ over PPARγ” value ([1]; PPARδ over PPARγ, human PPAR subtypes in vitro) of the same compound?
Answer: at least 400 fold

Question: And the “activity on PPARα in transactivation assays” value [2]?
Answer: negligible activity

Question: And the “type of agonism on PPARα” value [2]?
Answer: partial agonist

Question: And the “activity on LXRα” value [3]?
Answer: did not show any

Question: And the fatty acid oxidation [4]?
Answer: dose-dependent increase

Question: What about the “expression pattern of CPT1b (fatty acid metabolism)” value [5] of the same compound?
Answer: altered the expression patterns

Question: And the “expression pattern of PGC1α (mitochondrial biogenesis)” value [5]?
Answer: altered the expression patterns

— patent US20220023306A1, “USE OF A PPAR-DELTA AGONIST IN THE TREATMENT OF FATTY ACID OXIDATION DISORDERS (FAOD)” (Reneo Pharmaceuticals, Inc., priority 2019, published 2022)
